Test [1] has as its target T1, human FXa (Homo sapiens, UniProt P00742).
T1 construct: purchased Cosmobio-ERL HFXa-1011
Put plainly: FXa inhibitory action (IC50), reaction rate method. The format is biochemical. As to conditions: room temperature, read-out: FXa 50% inhibitory concentration. The method, then: (§1) Measurement of FXa Inhibitory Action (IC50)
In a 96-well microtiter plate, 10 μl of a sample solution, 40 μl of a 100 mM tris −200 mM sodium chloride −0.2% BSA (pH: 7.4) buffer and 10 μl of 0.05 U/ml human FXa (“Cosmobio-ERL HFXa-1011”, dissolved in and diluted with a measuring buffer) were poured in portions, followed by the addition of […] of S2222 (product of Chromogenix). An increase (mOD/min) in the absorbance at 405 nm was measured at room temperature. From the below-described equation, an inhibitory ratio % of each sample was determined. On a logarithmic probability paper, the final concentration of the sample and inhibitory ratio % were plotted along the abscissa and the ordinate, respectively, whereby a 50% inhibitory concentration (IC50) was determined.
(§2) Inhibitory ratio (%)=(1−OD of sample÷OD of control)×100

In test [2] the target is T2, human thrombin (Homo sapiens, UniProt P00734).
T2 construct: purchased Sigma Chemical
Kind of test: Thrombin inhibitory action (IC50), end point method. The class given is biochemical. As to conditions: 37° C. for 10 minutes, read-out: thrombin 50% inhibitory concentration. The method, then:
(§3) Measurement of Thrombin Inhibitory Action (IC50)
A sample solution (100 μl), 280 μl of a 100 mM tris −200 mM sodium chloride (pH 7.4) buffer and 100 μl of 1 mM S2238 (Chromogenix) solution were mixed and heated at 37° C. To the resulting mixture, 20 μl of 1 U/ml human thrombin (Sigma Chemical, dissolved in and diluted with a measuring buffer) were added, followed by heating at 37° C. for 10 minutes. To the resulting mixture, 100 μl of 1M citric acid were added and then, the absorbance at 405 nm was measured. The mixture to which only the diluting solvent was added instead of the sample was used as a blank, while the mixture to which 1M citric acid was added prior to the addition of thrombin was used as a control. The sample concentration (IC50) at which 50% of thrombin activity was inhibited was found and it was designated as an index of thrombin inhibitory action.

Test [3] concerns Plasma. Kind of test: Coagulation extending action (prothrombin time) in plasma. The class given is biochemical. The procedure:
Measurement of Coagulation Extending Action (Measurement of Prothrombin Time)
Plasma (20 μl) and 20 μl of a sample solution were mixed. To the resulting mixture, […] of cynplastin (product of Organon Teknika) were added and the coagulation time was measured. The concentration of the sample (CT2) at which the coagulation time of the plasma was increased twice was found and it was designated as an index of anticoagulant action.

In test [4] the test system is tissue thromboplastin-derived rat DIC model. Kind of test: Anti-thrombus effects in a tissue thromboplastin-derived rat DIC model. The format is in vivo. As to conditions: oral 30 mg/kg, tissue thromboplastin one hour after the sample. The method, then: Testing Method of Anti-thrombus Effects in a Tissue Thromboplastin-derived Rat DIC Model
A rat was anesthetized with halothane. After the collection of the blood (for measurement of the number of platelets, anti-FXa activity and TAT) from its cervical vein by using 1/10 part by weight of 3.13% (w/v) sodium citrate, the sample was administered orally. At an appropriate time after the administration, the rat was intraperioneally anesthetized (1 mg/kg) with Nembutal (50 mg/ml pentobarbital sodium, Abott Laboratories), followed by intravenous drip of 0.2 U/ml of tissue thromboplastin (Thromboplastin C plus, Dade Diagnostics of P. R. Inc.,) from the femoral vein for one minute at a rate of 2.5 to 3.0 ml/kg/min. The blood was collected (for measuring the number of platelets and anti-FXa activity) from the cervical vein 10 minutes after the intravenous drip and the blood was collected (for measuring TAT) from the cervical vein 20 minutes after the blood collection. The number of platelets, anti-FXa activity in the plasma and TAT concentration of each blood sample were measured. The number of the platelets was measured by an automatic cytometer, while the anti-FXa activity in the plasma was measured in a similar manner to that described in Test 7.
For the measurement of TAT (Thrombin-anti Thrombin=complex), EnzygnostR TAT micro kit (Boering Verke) was employed.

The next test addresses human Factor Xa (Homo sapiens, UniProt P00742). Put plainly: Oral administration test: anti-FXa activity in the plasma. As to conditions: rat, 30 mg/kg, one hour after the administration. The format is in vivo. The procedure: (§4) Test of Oral Administration
(§5) A sample was dissolved or suspended in a 0.5% (w/v) methyl cellulose solution and the resulting solution or suspension was orally administered (10 ml/kg) to a 8 to 11 week-old rat (Wistar male rat (Nippon SLC Co., Ltd.)) which had been fasted overnight. After administration of the sample, the blood to which 1/10 part by weight of 3.13% (w/v) sodium citrate had been added was collected from the cervical vein. The rat was awakened except during the blood collection. Feeding was re-started 6 hours after the blood collection. From each blood sample, the plasma was separated by centrifugal separation and anti-FXa activity in the blood and prothrombin time extending action were measured.
2-1) Measurement of Anti-FXa Activity in the Plasma
In a 96-well plate, 5 μl of the plasma was poured in portions, followed by the addition of 55 μl of a 8:1:2 mixture of 100 mM tris −200 mM sodium chloride −0.2% BSA (pH 7.4) buffer, water and 0.1 U/ml human Factor Xa solution (dissolved in and diluted with a measuring buffer) and 40 μl of 750 μM S-2222. After stirring for 10 seconds in a plate mixer, an increase (mOD/min) of the absorbance at 405 nm was measured at room temperature. The inhibitory ratio was calculated as follows:
An inhibitory ratio (%)=(1−OD of sample÷OD of control on average relative to blood-collecting time of sample)×100

Test [5] has as its system plasma. Put plainly: Oral administration test: coagulation extending action (prothrombin time). The format is in vivo. As to conditions: rat, 30 mg/kg, one hour after the administration. The method, then: as §4, §5
2-2) Measurement of Coagulation Extending Action in Oral Administration (Measurement of Prothrombin Time)
To 20 μl of the plasma, 40 μl of cynplastin (Organon Teknika/USA) were added and the coagulation time was measured. The ratio of the prothrombin time after the administration of the sample relative to the prothrombin time before the administration of the sample was designated as an index of the coagulation extending action.

Test [6] deals with T2, human thrombin. Kind of test: Measurement of Ki value against thrombin. The format is biochemical. As to conditions: Dixon plot. The method, then: Measurement of Ki Value Against Thrombin
In a 96-well microtiter plate, 5 μl of a sample solution, 5 μl of purified water, 40 μl of a 100 mM tris −200 mM sodium chloride −0.2% BSA (pH: 7.4) buffer and 10 μl of 5 U/ml human thrombin (product of Sigma Chemical, dissolved in and diluted with a measuring buffer) were poured in portions, followed by the addition of 40 μl of S2226 (product of Chromogenix, final concentration: 50, 100, 200 and 400 μM). […] The median of six values available by solving simultaneous equations was designated as a Ki value.

In test [7] the target is T1, human FXa. Kind of test: Measurement of Ki value against FXa. The format is biochemical. As to conditions: substrate S2222, Dixon plot. The method, then: Measurement of Ki Value Against FXa
In a 96-well microtiter plate, 5 μl of a sample solution, 5 μl of purified water, 40 μl of a 100 mM tris −200 mM sodium chloride −0.2% BSA (pH: 7.4) buffer and 10 μl of 0.05 U/ml human FXa (product of Enzyme Research, dissolved in and diluted with a measuring buffer) were poured, followed by the addition of 40 μl of S2222 (product of Chromogenix, final concentration: 75, 150, 300 and 600 μM). […] The median of six values available by solving simultaneous equations was designated as a Ki value.

Test [8] has as its target T1, human FXa. Put plainly: FXa inhibitory action (IC50), end point method. As to conditions: 37° C. for 15 minutes, read-out: FXa 50% inhibitory concentration. The class given is biochemical. The method, then:
as §1
A sample solution (100 μl), 280 μl of a 100 mM tris −200 mM sodium chloride (pH 7.4) buffer and 100 μl of a 1 mM S2222 (Chromogenix Corp.) solution were mixed and heated at 37° C. To the resulting mixture, 20 μl of 0.625 U/ml human FXa (“Cosmobio-ERL HFXa-1011”, dissolved in and diluted with a measuring buffer) were added, followed by heating at 37° C. for 15 minutes. To the resulting mixture, 100 μl of 1M citric acid were added and then, the absorbance at 405 nm was measured. The mixture to which only the diluting solvent for the sample was added instead of the sample was used as a blank, while the mixture to which 1M citric acid was added prior to the addition of FXa was used as a control. The concentration of the sample (IC50) at which 50% of FXa activity was inhibited was determined and it was designated as an index of FXa inhibitory action.

Test [9] addresses T2, human thrombin. Kind of test: Thrombin inhibitory action (IC50), reaction rate method. As to conditions: room temperature, read-out: thrombin 50% inhibitory concentration. The class given is biochemical. The method, then: as §3
In a 96-well microtiter plate, 10 μl of a sample solution, 40 μl of a 100 mM tris −200 mM sodium chloride −0.2% BSA (pH: 7.4) buffer and 10 μl of 4 U/ml human thrombin (Sigma Chemical, dissolved in and diluted with a measuring buffer) were poured, followed by the addition of 40 μl of 500 μM S2266 (product of Chromogenix). An increase (mOD/min) in the absorbance at 405 nm was measured at room temperature. From the below-described equation, an inhibitory ratio % of each sample was determined. On a logarithmic probability paper, the final concentration of the sample and inhibitory ratio were plotted along the abscissa and the ordinate, respectively, whereby a 50% inhibitory concentration (IC50) was found.
as §2

T1 sequence (P00742 235-488 limits assumed): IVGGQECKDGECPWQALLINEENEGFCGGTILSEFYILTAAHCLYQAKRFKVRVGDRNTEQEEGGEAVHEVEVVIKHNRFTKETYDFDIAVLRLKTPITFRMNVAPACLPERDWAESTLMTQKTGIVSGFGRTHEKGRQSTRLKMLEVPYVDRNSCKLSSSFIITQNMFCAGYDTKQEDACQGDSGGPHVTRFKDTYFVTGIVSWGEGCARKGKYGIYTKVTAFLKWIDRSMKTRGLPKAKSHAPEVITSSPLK
T1 sequence (P00742 41-179 partner limits assumed): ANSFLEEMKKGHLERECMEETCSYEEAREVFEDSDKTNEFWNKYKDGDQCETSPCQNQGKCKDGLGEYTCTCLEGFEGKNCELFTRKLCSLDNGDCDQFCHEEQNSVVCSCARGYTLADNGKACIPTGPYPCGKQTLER
Chain of human Factor Xa (P00742 235-488 limits assumed): as the sequence (P00742 235-488 limits assumed) above
Chain of human Factor Xa (P00742 41-179 partner limits assumed): as the sequence (P00742 41-179 partner limits assumed) above

For the compound “2-[[4-[(6-Chloronaphthalen-2-yl)sulfonyl]piperazin-1-yl]carbonyl]-6,6-dimethyl-4,5,6,7-tetrahydrothiazolo[5,4-c]pyridinium iodide [Example 92]”, the IC50 was 7.8 nM at human FXa [1] and ≥ 200 µM on human thrombin [2]. The “CT2 (concentration at which the coagulation time of the plasma was increased twice)” value in the test with Plasma [3] turned out to be 0.35 µM.

On to `CC1Cc2nc(C(=O)N3CCN(S(=O)(=O)c4ccc5cc(Cl)ccc5c4)CC3C(N)=O)sc2CN1.Cl` (stereo not shown) [Example 95, 2-Carbamoyl-4-[(6-chloronaphthalen-2-yl)sulfonyl]-1-[(6-methyl-4,5,6,7-tetrahydrothiazolo[5,4-c]pyridin-2-yl)carbonyl]piperazine hydrochloride], for which, in test [4], the “anti-FXa action in the plasma” value is “apparent anti-FXa action in the plasma was recognized”, the “decrease in the number of the platelets” value is “suppressed” and the “increase in the TAT concentration” value is reported as “suppressed”.

On to `Cl.O=C(C1CC=C(c2ccncc2)CC1)N1CCN(S(=O)(=O)c2ccc3cc(Cl)ccc3c2)CC1` (racemic) [Example 110, 1-[(6-Chloronaphthalen-2-yl)sulfonyl]-4-[[(1RS)-4-(pyridin-4-yl)-3-cyclohexene]carbonyl]piperazine hydrochloride], for which the “anti-FXa activity in the plasma” value on human Factor Xa is 70%. Besides, in the test with plasma [5], the “extension of the prothrombin time (ratio after/before administration)” value is given as 1.18 times.

For the compound `C[N+]1([O-])CCc2nc(C(=O)N3CCN(S(=O)(=O)c4ccc5cc(Cl)ccc5c4)CC3)sc2C1` (stereo not shown) [Example 93], the inhibition constant (Ki) at human thrombin [6] was found to be 3.3 µM; on human FXa [7], 10.9 nM.

As for `O=C(c1ccc(-c2cc[n+]([O-])cc2)cc1)N1CCN(S(=O)(=O)c2ccc3cc(Cl)ccc3c2)CC1` [Example 6, 4-[4-[[4-[(6-Chloronaphthalen-2-yl)sulfonyl]piperazin-1-yl]carbonyl]phenyl]pyridine N-oxide], the IC50 at human FXa [8] came out at 125 nM.

In the case of `O=C(c1ccc(-c2cccc[n+]2[O-])cc1)N1CCN(S(=O)(=O)c2ccc3cc(Cl)ccc3c2)CC1` [Example 19, 2-[4-[[4-[(6-Chloronaphthalen-2-yl)sulfonyl]piperazin-1-yl]carbonyl]phenyl]pyridine N-oxide], the IC50 at human thrombin [9] turned out to be 1900 nM; at human FXa [8] it was 72 nM.

For orientation: Ki means a measure of affinity in units of concentration, obtained from inhibition or displacement.

The values are drawn from US6525042B1 (Daiichi Pharmaceutical Co., Ltd., priority 1997, dated 2003).
